Assay results as given in patent publication US20060194883A1, “Mmp expression inhibitor” (EISAI CO., LTD, priority 2003, published 2006).

What was measured:
Assay in all cases: gene expression with TPA induction, RT-PCR
Type in all cases: cell-based
Settings in all cases: HepG2; 20 nM of TPA alone
Ets-1 = system: Ets-1
Procedure: (§1) MMP and Ets-1, the expression of which is inhibited by menatetrenone, are known to be genes that are induced by 12-O-tetradecanoylphorbol-13-acetate (TPA) as well as uPA (urokinase plasminogen activator) and the like. In order to discover whether menatetrenone controls expression of genes activated by TPA, TPA was added to HepG2 cultured hepatic cancer cells at a concentration of 20 nM, menatetrenone was then added thereto, and RT-PCR and Western blot were performed to investigate whether expression of the aforementioned gene expression of which was induced by TPA was affected. […] On the other hand, the uPA receptor uPAR and the uPA inhibitor PAI were not affected.

MMP-1 = system: MMP-1
Procedure: as §1

MMP-3 = system: MMP-3
Procedure: as §1

MMP-7 = system: MMP-7
Procedure: as §1

[1] = system: uPA (urokinase plasminogen activator)
Procedure: as §1

uPA inhibitor PAI = system: uPA inhibitor PAI
Procedure: as §1

uPA receptor uPAR = system: uPA receptor uPAR
Procedure: as §1

CCCCCCCCCCCCCC(=O)O[C@@H]1[C@@H](C)[C@@]2(O)[C@@H](C=C(CO)C[C@]3(O)C(=O)C(C)=C[C@@H]23)[C@@H]2C(C)(C)[C@]12OC(C)=O [TPA, 12-O-tetradecanoylphorbol-13-acetate]
mRNA expression of Ets-1 (Ets-1): increased | mRNA expression of MMP-1 (MMP-1): increased | mRNA expression of MMP-3 (MMP-3): increased | mRNA expression of MMP-7 (MMP-7): increased | mRNA expression of uPA [1]: increased | mRNA expression of PAI (uPA inhibitor PAI): not affected | mRNA expression of uPAR (uPA receptor uPAR): not affected
